For `Cc1ccccc1C(=O)c1ccccc1C`, the logP was found to be 3.87.

On to `CCc1ncc[nH]1`, for which the logP came to 0.77.

In the case of `CCCCCc1ccc(C(=O)O)cc1`, the logP worked out at 4.5.

For the molecule `Nc1ccc(Br)c2ccccc12`, the logP came out at 3.26.

As to `Nc1ccc2ccc3cccc4ccc1c2c34`, the logP was 4.01.

The molecule `CCc1cccc(CC)c1C(=O)c1c(CC)cccc1CC` had a logP of 6.54.

With `Cc1cccc(C)c1C(=O)c1c(C)cccc1C`, the logP came out at 4.69.

Consider `O=[N+]([O-])c1cccc2ccccc12`, for which the logP came to 3.06.

In turn, `Cc1nc2ccccc2[nH]1` displayed a logP of 1.84.

In turn, `Cc1cccc(C)c1C(=O)c1ccccc1` displayed a logP of 3.65.

`Cc1ccc(C(=O)O)cc1C` came in with a logP of 2.95.

In turn, `CCCCCCCc1ccc(C(=O)O)cc1` yielded a logP of 5.56.

As for `Clc1ccc2cc3ccccc3cc2c1`, the logP was 5.2.

`CCc1c2ccccc2cc2ccccc12` gave a logP of 5.52.

Regarding `CCCc1ncc[nH]1`, the logP was 1.3.

The record behind these values is the SangsterLogP compilation.
